Data taken from article PMC11822212, “High-throughput screening identifies Aurora kinase B as a critical therapeutic target for Merkel cell carcinoma” (Nature Communications, 2025).
Like-named read-outs stand apart in the source and are kept apart here.

How the values were obtained:
HACAT cells = assay: qHTS cell viability (CellTiter-Glo, 72 h; primary screen), control cell line; assay type: cell-based, human
MCC26 cells (VN-MCC) = assay: qHTS cell viability (CellTiter-Glo, 72 h; primary and follow-up small molecule screen); assay type: cell-based, human
[1] = tested on: VP-MCC cell lines (WAGA, MKL-1, MKL-2); assay: qHTS cell viability, VP-MCC cell lines as a group (mean AUC, VP.MCC.avg); assay type: cell-based, human
WAGA cells (VP-MCC) = assay: qHTS cell viability (CellTiter-Glo, 72 h; primary and follow-up small molecule screen); assay type: cell-based, human
[2] = tested on: control cell lines (HACAT, HEK293T, CRL-7250, NIH-3T3); assay: qHTS cell viability, control cell lines as a group (mean AUC, Control.avg); assay type: cell-based
MCC13 cells (VN-MCC) = assay: qHTS cell viability (CellTiter-Glo, 72 h; primary and follow-up small molecule screen); assay type: cell-based, human
[3] = tested on: six MCC cell lines and four control cell lines; assay: qHTS cell viability, all 10 cell lines screened; assay type: cell-based
MKL-1 cells (VP-MCC) = assay: qHTS cell viability (CellTiter-Glo, 72 h; primary and follow-up small molecule screen); assay type: cell-based, human
CRL-7250 cells = assay: qHTS cell viability (CellTiter-Glo, 72 h; primary screen), control cell line; assay type: cell-based
HEK293T cells = assay: as above; assay type: cell-based, human
NIH-3T3 cells = assay: as above; assay type: cell-based, mouse
UISO cells (VN-MCC) = assay: qHTS cell viability (CellTiter-Glo, 72 h; primary and follow-up small molecule screen); assay type: cell-based, human
MKL-2 cells (VP-MCC) = assay: as above; assay type: cell-based, human
[4] = tested on: MCC cell lines (WAGA, MKL-1, MKL-2, MCC13, MCC26, UISO); assay: qHTS cell viability, all six MCC cell lines as a group (mean AUC, MCC.avg); assay type: cell-based, human
[5] = tested on: VN-MCC cell lines (MCC13, MCC26, UISO); assay: qHTS cell viability, VN-MCC cell lines as a group (mean AUC, VN.MCC.avg); assay type: cell-based, human
[6] = MIPE library, 11-point DRC, control cell line, sheet S2E
[7] = MIPE library, 11-point DRC, sheet S2E

Question: `CC#C[C@]1(O)CC[C@H]2[C@@H]3CCC4=CC(=O)CCC4=C3[C@@H](c3ccc(N(C)C)cc3)C[C@@]21C` [Mifepristone] was tested. Which HACAT_AUC (HACAT cells; [6]) did it give?
Answer: The HACAT_AUC was 471.301.

Question: And the MCC26_AUC (MCC26 cells (VN-MCC); [7])?
Answer: The MCC26_AUC was 459.158.

Question: And the “Area under the dose-response curve (AUC) MCC26 Replicate 1” value (MCC26 cells (VN-MCC); follow-up screen, MCC26, replicate 1)?
Answer: The value was 467.8.

Question: And the “Area under the dose-response curve (AUC) MCC26 Replicate 2” value (MCC26 cells (VN-MCC); follow-up screen, MCC26, replicate 2)?
Answer: The value was 425.4.

Question: What about the “Area under the dose-response curve (AUC) MCC26 Replicate 3” value (MCC26 cells (VN-MCC); follow-up screen, MCC26, replicate 3) of the same compound?
Answer: Its value is 483.6.

Question: And the Control-VP-MCC ([1]; MIPE library, Control AUC minus VP-MCC AUC (therapeutic window), sheet S2E)?
Answer: The Control-VP-MCC was 171.607.

Question: What about the VP-MCC_Avg_AUC ([1]; MIPE library, mean AUC of VP-MCC cell lines, sheet S2E) of the same compound?
Answer: Its VP-MCC_Avg_AUC is 277.18.

Question: And the WAGA_AUC (WAGA cells (VP-MCC); [7])?
Answer: Its WAGA_AUC is 291.204.

Question: And the “Area under the dose-response curve (AUC) WAGA Replicate 1” value (WAGA cells (VP-MCC); follow-up screen, WAGA, replicate 1)?
Answer: The value was 532.2.

Question: And the “Area under the dose-response curve (AUC) WAGA Replicate 2” value (WAGA cells (VP-MCC); follow-up screen, WAGA, replicate 2)?
Answer: The value was 542.6.

Question: And the “Area under the dose-response curve (AUC) WAGA Replicate 3” value (WAGA cells (VP-MCC); follow-up screen, WAGA, replicate 3)?
Answer: Its value is 501.4.

Question: What about the Control_Avg_AUC ([2]; MIPE library, mean AUC of control cell lines, sheet S2E) of the same compound?
Answer: Its Control_Avg_AUC is 448.787.

Question: And the MCC13_AUC (MCC13 cells (VN-MCC); [7])?
Answer: Its MCC13_AUC is 450.219.

Question: And the “Area under the dose-response curve (AUC) MCC13 Replicate 1” value (MCC13 cells (VN-MCC); follow-up screen, MCC13, replicate 1)?
Answer: The value was 516.1.

Question: And the “Area under the dose-response curve (AUC) MCC13 Replicate 2” value (MCC13 cells (VN-MCC); follow-up screen, MCC13, replicate 2)?
Answer: The value was 505.4.

Question: What about the “Area under the dose-response curve (AUC) MCC13 Replicate 3” value (MCC13 cells (VN-MCC); follow-up screen, MCC13, replicate 3) of the same compound?
Answer: The value was 486.2.

Question: And the Control-MCC ([3]; MIPE library, Control AUC minus MCC AUC (therapeutic window), sheet S2E)?
Answer: The Control-MCC was 97.3285.

Question: And the MKL1_AUC (MKL-1 cells (VP-MCC); [7])?
Answer: The MKL1_AUC was 274.173.

Question: What about the “Area under the dose-response curve (AUC) MKL-1 Replicate 1” value (MKL-1 cells (VP-MCC); follow-up screen, MKL-1, replicate 1) of the same compound?
Answer: Its value is 491.0.

Question: What about the “Area under the dose-response curve (AUC) MKL-1 Replicate 2” value (MKL-1 cells (VP-MCC); follow-up screen, MKL-1, replicate 2) of the same compound?
Answer: Its value is 482.0.

Question: And the “Area under the dose-response curve (AUC) MKL-1 Replicate 3” value (MKL-1 cells (VP-MCC); follow-up screen, MKL-1, replicate 3)?
Answer: The value was 520.5.

Question: What about the CRL7250_AUC (CRL-7250 cells; [6]) of the same compound?
Answer: The CRL7250_AUC was 445.154.

Question: And the HEK293T_AUC (HEK293T cells; [6])?
Answer: The HEK293T_AUC was 403.35.

Question: And the NIH3T3_AUC (NIH-3T3 cells; [6])?
Answer: Its NIH3T3_AUC is 475.344.

Question: And the UISO_AUC (UISO cells (VN-MCC); [7])?
Answer: The UISO_AUC was 367.837.

Question: And the “Area under the dose-response curve (AUC) UISO Replicate 1” value (UISO cells (VN-MCC); follow-up screen, UISO, replicate 1)?
Answer: Its value is 472.5.

Question: And the “Area under the dose-response curve (AUC) UISO Replicate 2” value (UISO cells (VN-MCC); follow-up screen, UISO, replicate 2)?
Answer: Its value is 481.5.

Question: And the “Area under the dose-response curve (AUC) UISO Replicate 3” value (UISO cells (VN-MCC); follow-up screen, UISO, replicate 3)?
Answer: Its value is 472.0.

Question: And the MKL2_AUC (MKL-2 cells (VP-MCC); [7])?
Answer: The MKL2_AUC was 266.162.

Question: What about the “Area under the dose-response curve (AUC) MKL-2 Replicate 1” value (MKL-2 cells (VP-MCC); follow-up screen, MKL-2, replicate 1) of the same compound?
Answer: The value was 494.5.

Question: What about the “Area under the dose-response curve (AUC) MKL-2 Replicate 2” value (MKL-2 cells (VP-MCC); follow-up screen, MKL-2, replicate 2) of the same compound?
Answer: Its value is 503.2.

Question: What about the “Area under the dose-response curve (AUC) MKL-2 Replicate 3” value (MKL-2 cells (VP-MCC); follow-up screen, MKL-2, replicate 3) of the same compound?
Answer: The value was 499.4.

Question: What about the MCC_Avg_AUC ([4]; MIPE library, mean AUC of six MCC cell lines, sheet S2E) of the same compound?
Answer: The MCC_Avg_AUC was 351.459.

Question: And the Control-VN-MCC ([5]; MIPE library, Control AUC minus VN-MCC AUC (therapeutic window), sheet S2E)?
Answer: Its Control-VN-MCC is 23.0495.

Question: What about the VN-MCC_Avg_AUC ([5]; MIPE library, mean AUC of VN-MCC cell lines, sheet S2E) of the same compound?
Answer: The VN-MCC_Avg_AUC was 425.738.

Question: For `CN(C)CCc1c[nH]c2ccc(O)cc12` [Bufotenine], which HACAT_AUC (HACAT cells) is on record?
Answer: The HACAT_AUC was 494.192.

Question: And the MCC26_AUC (MCC26 cells (VN-MCC))?
Answer: Its MCC26_AUC is 406.205.

Question: And the Control-VP-MCC [1]?
Answer: The Control-VP-MCC was 66.7991.

Question: And the VP-MCC_Avg_AUC [1]?
Answer: The VP-MCC_Avg_AUC was 426.671.

Question: What about the WAGA_AUC (WAGA cells (VP-MCC)) of the same compound?
Answer: Its WAGA_AUC is 422.913.

Question: And the Control_Avg_AUC [2]?
Answer: Its Control_Avg_AUC is 493.471.

Question: And the MCC13_AUC (MCC13 cells (VN-MCC))?
Answer: Its MCC13_AUC is 457.919.

Question: What about the Control-MCC [3] of the same compound?
Answer: Its Control-MCC is 65.5458.

Question: What about the MKL1_AUC (MKL-1 cells (VP-MCC)) of the same compound?
Answer: Its MKL1_AUC is 439.853.

Question: What about the CRL7250_AUC (CRL-7250 cells) of the same compound?
Answer: The CRL7250_AUC was 497.008.

Question: And the HEK293T_AUC (HEK293T cells)?
Answer: The HEK293T_AUC was 488.2.

Question: And the NIH3T3_AUC (NIH-3T3 cells)?
Answer: Its NIH3T3_AUC is 494.482.

Question: And the UISO_AUC (UISO cells (VN-MCC))?
Answer: Its UISO_AUC is 423.411.

Question: And the MKL2_AUC (MKL-2 cells (VP-MCC))?
Answer: Its MKL2_AUC is 417.248.

Question: And the MCC_Avg_AUC [4]?
Answer: Its MCC_Avg_AUC is 427.925.

Question: And the Control-VN-MCC [5]?
Answer: Its Control-VN-MCC is 64.2925.

Question: And the VN-MCC_Avg_AUC [5]?
Answer: The VN-MCC_Avg_AUC was 429.178.
